This is an account of results in patent US20110098296A1, “Thiazole And Oxazole Kinase Inhibitors” (priority 2007, published 2011).

A word on the IC50: it is the concentration at which inhibition is half-maximal.

The test system of one assay is BT474 tumor cells. Briefly: Method C: Cell Growth Inhibition Assay (CellTiter-Glo), BT474. It counts as cell-based. To be noted: Homo sapiens, BT-474, 72 h, 3 days, 4-parameter fit. How it is done: (§1) Human breast tumor cells (BT474) were cultured in RPMI (Mediatech 50-011-PB), containing 10% FBS (JRH Biosciences 12176) and 1% penicillin-streptomycin (Invitrogen 15140). Human head and neck tumor cells (HN5) were cultured in high glucose DMEM (Mediatech 50-013-PB) containing 10% FBS and 1% penicillin-streptomycin. Human colon tumor cells (Colo205) were cultured in RPMI (Mediatech 50-020-PB) containing 10% FBS and 1% penicillin-streptomycin. Human melanoma cancer cells (SK-MEL-28) were cultured in EMEM with nonessential amino acids (Mediatech 50-011-PB) containing 10% FBS, 1% sodium pyruvate (JT Baker 3354-04), and 1% penicillin-streptomycin. Human melanoma cancer cells (A375P F11s) were cultured in RPMI (Mediatech 50-020-PB) containing 10% FBS, 1% sodium pyruvate, and 1% penicillin-streptomycin. Human colon cancer cells (HT-29) were cultured in high glucose DMEM (Mediatech 50-013-PB) containing 10% FBS and 1% penicillin-streptomycin. Human melanoma cancer cells (SK-MEL-3) were cultured in McCoy's 5A (50-025-PB) containing 15% FBS, and 1% penicillin-streptomycin. All cell lines were maintained at 37° C. in a humidified 5% CO2, 95% air incubator. Cells were harvested using trypsin/EDTA (Invitrogen 25200), counted using an haemocytometer, and plated. For 96-well assays (using white full-area NUNC plates cat. #136102), cells were plated in 105 μL at the following densities (cells/well): HN5, 500; Colo205, 500; SK-MEL-28, 500; A375P-F11s, 500; HT-29, 500; SK-MEL-3, 500; and BT474, 3000. For 384-well assays (white full-area NUNC plates, cat. #781080), cells were plated in 48 μL at the following densities (cells/well): HN5, 500; Colo205, 500; SK-MEL-28, 500; A375P-F11s, 500; HT29, 500; SK-MEL-3, 500; and BT474, 2000.
(§2) The next day, compounds were diluted as follow: For 96-well assays, 13.5 μL of compound in DMSO were diluted using nine (9) serial 1:3 dilutions of 4.5 μL in 9 μL of DMSO. Medium (270 μl/well of RPMI with 10% FBS and 1% penicillin-streptomycin) was added to the plates. Aliquots (7 μl) were added to cells in the final assay giving a final DMSO concentration of 0.2%. For 384-well assays, 15 μL of compound in DMSO were diluted using nine (9) serial 1:3 dilutions of 5 μL in 10 μL of DMSO, followed by a further dilution of 5 μL of compound with 95 μL of medium, of which 2 μL were added to cells in the final assay giving a final DMSO concentration of 0.2%. Cells were incubated at 37° C., 5% CO2 for 3 days.
(§3) Total ATP was measured (as a surrogate estimate of cell number) using CellTiter-Glo® reagent (Promega G7571). Briefly, plates were removed from the incubator and allowed to equilibrate to room temperature for 30 minutes. CellTiter-Glo® (25 μL or 55 μL for 384-well or 96-well assays, respectively) reagent was added to each well and plates were shaken on an orbital plate shaker for 2 mins. Plates were incubated without shaking for a further 30 mins and read on an LJL Analyst GT reader in luminometer mode with an integration time of 0.5 seconds per well. Percent inhibition of cell growth was calculated relative to DMSO vehicle-treated control wells. Concentration of compound required to give 50% inhibition of vehicle-treated control cell growth (IC50) was interpolated using a 4-parameter fit for determining IC50 using the following equation: Y=A+((B−A)/(1+((C/X)̂D))) where X=IC50.
On the technique in general: Cellular ATP, detected with luciferase, serves as a proxy for viable cell number.

The next assay deals with T1, ErbB2 (Homo sapiens, UniProt P04626).
T1 construct: made in house; host or cells: baculovirus expression system
Put plainly: ErbB-2 substrate phosphorylation assay (HTRF). The format is biochemical. To be noted: Method (A): Enzyme Mix incubated with compound at 20° C. for 1 hr, reaction started by adding Substrate Mix. Here is the method:
(§4) Compounds of the present invention were tested for EGFR and ErbB-2 protein tyrosine kinase inhibitory activity in substrate phosphorylation assays using enzymes purified from a baculovirus expression system. Reagent production was conducted essentially as described in Brignola, P. S., et al., (2002) J. Biol. Chem. 277(2):1576-1585.
(§5) The method measures the ability of the isolated enzyme to catalyse the transfer of the gamma-phosphate from ATP onto the tyrosine residue of a biotinylated synthetic peptide referenced “Peptide C” in Brignola, P. S., et al., (2002) J. Biol. Chem. 277(2):1576-1585. The extent of tyrosine phosphorylation was measured using an anti-phosphotyrosine antibody, and quantified by homogenous time-resolved fluorescence (HTRF).
(§6) Reactions were performed in black 384-well polystyrene flat-bottom plates in a final volume of 20 μl. Assays were performed by adding 10 μl of each of the following solutions, Substrate Mix and Enzyme Mix: The Substrate Mix contained 100 mM 3-[N-morpholino]propanesulfonic acid (MOPS) (pH 7.5), 2 mM MnCl2, 20 μM ATP, 0.01% Tween-20, 0.1 mg/mL (BSA), 0.8 uM peptide substrate, and 1 mM dithiothreitol. The Enzyme Mix contained 100 mM MOPS (pH 7.5); 0.01% Tween-20; 0.1 mg/mL BSA, and either 0.8 nM EGFR, 10 nM ErbB2, or 1 nM ErbB4
(§7) During the course of these studies, two separate methods have been used to measure the potency of compounds. In Method A (indicated as “(A)” in the tables below), the Enzyme Mix was added to the compound plates and the plates were incubated at 20° C. for 1 hr. The reactions were then started by adding the Substrate Mix. In Method B (indicated as “(B)” in the tables below), the Substrate Mix was added to the compound plates first, then the reaction was started by adding the Enzyme Mix.
(§8) After initiating the reaction with either method describe above, the reactions were allowed to proceed for 90 minutes at 20° C. The reactions were then terminated by the addition of 20 μL 100 mM EDTA to each well. 40 μL/well of HTRF detection mix were added to the assay plates. The final concentrations of the detection reagents were: 100 mM HEPES (pH7.5), 0.1 mg/mL BSA, 15 nM streptavidin-labeled allophycocyanin (PerkinElmer), and 1 nM europium-labeled anti-phosphotyrosine antibody (PerkinElmer). Assay plates were left unsealed and were counted in a Wallac Multilabel Counter 1420 (PerkinElmer).
(§9) Compounds under analysis were dissolved in dimethylsulfoxide (DMSO) to 1.0 mM and serially diluted 1 to 3 with DMSO through twelve dilutions. 1 μL of each concentration was transferred to the corresponding well of an assay plate. This creates a final compound concentration range from 0.00027 to 47.6 μM.
(§10) The data for dose responses were plotted as % Inhibition calculated with the data reduction formula 100*(1−(U1−C2)/(C1−C2)) versus concentration of compound where U1 is the unknown value, C1 is the average control value obtained for 4.76% DMSO, and C2 is the average control value obtained for 0.035 M EDTA. Data were fitted with a curve described by:
(§11) where Vmax is the upper asymptote, Y2 is the Y intercept, and K is the IC50. The results for each compound were recorded as pIC50s, calculated as follows: […]

A further assay has as its system Colo205 tumor cells. Put plainly: Method C: Cell Growth Inhibition Assay (CellTiter-Glo), Colo205. It counts as cell-based. Particulars: Homo sapiens, COLO 205, 72 h, 3 days, 4-parameter fit. Here is the method: as §1, §2, §3
For another assay, the system named is HN5 tumor cells. Put plainly: Method C: Cell Growth Inhibition Assay (CellTiter-Glo), HN5. The format is cell-based. To be noted: Homo sapiens, 72 h, 3 days, 4-parameter fit. Here is the method: as §1, §2, §3
Another assay deals with T2, EGFR (Homo sapiens, UniProt P00533).
T2 construct: made in house; host or cells: baculovirus expression system
Briefly: EGFR substrate phosphorylation assay (HTRF). The format is biochemical. To be noted: Method (A): Enzyme Mix incubated with compound at 20° C. for 1 hr, reaction started by adding Substrate Mix. Here is the method:
as §4, §5, §6, §7, §8, §9, §10, §11

For a further assay, the system named is SK-MEL-28 tumor cells. Put plainly: Method C: Cell Growth Inhibition Assay (CellTiter-Glo), SK-MEL-28. The format is cell-based. Particulars: Homo sapiens, SK-MEL-28, 72 h, 3 days, 4-parameter fit. Here is the method:
as §1, §2, §3

Where a name gives a salt, the structure may show the parent alone. A value given as a limit tells only on which side of the number the result lay.

T1 sequence (P04626 23-1255): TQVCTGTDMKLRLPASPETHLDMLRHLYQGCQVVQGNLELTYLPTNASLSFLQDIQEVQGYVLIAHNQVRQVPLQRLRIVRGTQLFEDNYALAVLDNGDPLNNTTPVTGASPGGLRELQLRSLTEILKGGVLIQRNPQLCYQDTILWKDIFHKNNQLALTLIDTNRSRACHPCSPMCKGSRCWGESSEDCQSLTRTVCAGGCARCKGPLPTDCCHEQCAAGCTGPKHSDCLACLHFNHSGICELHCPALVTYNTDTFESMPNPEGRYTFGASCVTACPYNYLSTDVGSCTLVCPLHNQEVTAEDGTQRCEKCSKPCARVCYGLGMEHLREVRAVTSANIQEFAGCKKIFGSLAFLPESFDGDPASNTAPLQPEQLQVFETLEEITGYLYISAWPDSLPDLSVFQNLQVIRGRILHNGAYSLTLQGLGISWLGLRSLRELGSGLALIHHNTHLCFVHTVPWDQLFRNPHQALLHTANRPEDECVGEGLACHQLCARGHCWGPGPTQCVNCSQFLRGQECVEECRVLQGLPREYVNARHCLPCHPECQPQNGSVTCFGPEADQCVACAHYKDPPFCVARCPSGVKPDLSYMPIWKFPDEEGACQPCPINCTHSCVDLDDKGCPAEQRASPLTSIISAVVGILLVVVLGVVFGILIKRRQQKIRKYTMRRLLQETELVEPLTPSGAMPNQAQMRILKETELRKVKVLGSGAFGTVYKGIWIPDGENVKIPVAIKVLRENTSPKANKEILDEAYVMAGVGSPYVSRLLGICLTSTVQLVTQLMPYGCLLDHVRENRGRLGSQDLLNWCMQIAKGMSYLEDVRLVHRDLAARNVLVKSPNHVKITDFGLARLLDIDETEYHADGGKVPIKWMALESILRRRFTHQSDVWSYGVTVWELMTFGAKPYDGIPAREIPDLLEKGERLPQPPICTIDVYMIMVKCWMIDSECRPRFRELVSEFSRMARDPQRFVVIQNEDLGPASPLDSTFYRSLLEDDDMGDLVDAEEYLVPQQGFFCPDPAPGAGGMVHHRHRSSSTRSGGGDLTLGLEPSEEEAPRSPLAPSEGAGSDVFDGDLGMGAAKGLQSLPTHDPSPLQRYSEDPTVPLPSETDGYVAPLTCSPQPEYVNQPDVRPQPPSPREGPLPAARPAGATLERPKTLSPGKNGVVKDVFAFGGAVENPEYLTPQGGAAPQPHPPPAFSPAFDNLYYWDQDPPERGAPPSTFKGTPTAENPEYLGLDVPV
T2 sequence (P00533 25-1210): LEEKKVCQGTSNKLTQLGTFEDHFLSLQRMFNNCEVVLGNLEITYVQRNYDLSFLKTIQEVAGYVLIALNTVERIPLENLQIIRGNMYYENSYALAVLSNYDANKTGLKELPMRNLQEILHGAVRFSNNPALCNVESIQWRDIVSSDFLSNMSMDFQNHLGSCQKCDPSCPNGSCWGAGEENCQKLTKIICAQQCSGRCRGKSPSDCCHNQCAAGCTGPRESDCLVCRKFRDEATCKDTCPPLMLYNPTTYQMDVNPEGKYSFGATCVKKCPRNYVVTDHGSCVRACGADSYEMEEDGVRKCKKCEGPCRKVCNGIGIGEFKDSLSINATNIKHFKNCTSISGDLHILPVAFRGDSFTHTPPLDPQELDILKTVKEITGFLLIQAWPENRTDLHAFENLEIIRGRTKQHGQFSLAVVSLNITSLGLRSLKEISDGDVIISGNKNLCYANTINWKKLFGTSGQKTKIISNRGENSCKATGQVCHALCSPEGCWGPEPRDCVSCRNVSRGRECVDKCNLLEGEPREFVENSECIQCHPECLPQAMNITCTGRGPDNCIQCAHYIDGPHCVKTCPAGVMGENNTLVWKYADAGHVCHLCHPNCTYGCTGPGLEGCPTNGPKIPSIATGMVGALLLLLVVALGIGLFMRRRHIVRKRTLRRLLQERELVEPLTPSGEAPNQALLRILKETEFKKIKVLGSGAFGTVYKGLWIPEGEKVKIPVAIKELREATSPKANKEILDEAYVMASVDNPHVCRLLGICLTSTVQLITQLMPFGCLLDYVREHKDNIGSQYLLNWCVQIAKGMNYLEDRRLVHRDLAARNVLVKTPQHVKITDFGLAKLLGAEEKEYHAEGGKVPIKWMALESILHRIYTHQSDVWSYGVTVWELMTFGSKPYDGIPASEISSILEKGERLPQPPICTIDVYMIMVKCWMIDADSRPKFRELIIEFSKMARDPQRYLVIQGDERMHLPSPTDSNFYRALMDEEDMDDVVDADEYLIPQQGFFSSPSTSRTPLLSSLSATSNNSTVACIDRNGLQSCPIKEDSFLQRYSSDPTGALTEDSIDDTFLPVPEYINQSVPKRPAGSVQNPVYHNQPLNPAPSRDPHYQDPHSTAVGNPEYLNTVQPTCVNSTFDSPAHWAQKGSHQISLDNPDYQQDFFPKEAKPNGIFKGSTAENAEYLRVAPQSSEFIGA

In the case of `CN(C)CCOc1cccc(Nc2nccc(-c3sc(NCCCN4CCOCC4)nc3-c3cccc(NC(=O)c4c(F)cccc4F)c3)n2)c1` [Example 29, N-[3-(5-{2-[(3-{[2-(Dimethylamino)ethyl]oxy}phenyl)amino]-4-pyrimidinyl}-2-{[3-(4-morpholinyl)propyl]amino}-1,3-thiazol-4-yl)phenyl]-2,6-difluorobenzamide], the IC50 was < 100 nM in the assay on BT474 tumor cells; < 100 nM on ErbB2; 100 to 1000 nM in the assay with Colo205 tumor cells; < 100 nM in the assay on HN5 tumor cells; < 100 nM at EGFR; > 1000 nM with SK-MEL-28 tumor cells.
As for `CN(C)CCOc1cccc(Nc2nccc(-c3sc(N)nc3-c3cccc(C(=O)Nc4c(F)cccc4F)c3)n2)c1` [Example 76, 3-(2-Amino-5-{2-[(3-{[2-(dimethylamino)ethyl]oxy}phenyl)amino]-4-pyrimidinyl}-1,3-thiazol-4-yl)-N-(2,6-difluorophenyl)benzamide], the IC50 in the assay with BT474 tumor cells is < 100 nM; at ErbB2 it was < 100 nM; in the assay with Colo205 tumor cells it was 100 to 1000 nM; with HN5 tumor cells, 100 to 1000 nM; on EGFR, < 100 nM.
As for `CN(C)CCOc1cccc(Nc2nccc(-c3scnc3-c3cccc(NC(=O)c4cc(F)ccc4F)c3)n2)c1` [Example 96, N-[3-(5-{2-[(3-{[2-(Dimethylamino)ethyl]oxy}phenyl)amino]-4-pyrimidinyl}-1,3-thiazol-4-yl)phenyl]-2,5-difluorobenzamide], the IC50 was 100 to 1000 nM in the assay on BT474 tumor cells; < 100 nM on ErbB2; > 1000 nM in the assay with Colo205 tumor cells; < 100 nM in the assay on HN5 tumor cells; < 100 nM at EGFR; > 1000 nM in the assay with SK-MEL-28 tumor cells.
As for `NS(=O)(=O)CCc1cccc(Nc2nccc(-c3scnc3-c3cccc(NC(=O)c4cc(F)ccc4F)c3)n2)c1` [Example 100, N-(3-{5-[2-({3-[2-(Aminosulfonyl)ethyl]phenyl}amino)-4-pyrimidinyl]-1,3-thiazol-4-yl}phenyl)-2,5-difluorobenzamide trifluoroacetate], the IC50 in the assay with BT474 tumor cells is < 100 nM; on ErbB2, < 100 nM; with Colo205 tumor cells, 100 to 1000 nM; with HN5 tumor cells, < 100 nM; on EGFR, < 100 nM.
For the molecule `Cc1nc(-c2cccc(NC(=O)c3c(F)cccc3F)c2)c(-c2ccnc(Nc3cccc(OCCN(C)C)c3)n2)s1` [Example 102, N-[3-(5-{2-[(3-{[2-(Dimethylamino)ethyl]oxy}phenyl)amino]-4-pyrimidinyl}-2-methyl-1,3-thiazol-4-yl)phenyl]-2,6-difluorobenzamide], the half-inhibitory concentration (IC50) in the assay on BT474 tumor cells is 100 to 1000 nM; on ErbB2 it was < 100 nM; in the assay with Colo205 tumor cells, > 1000 nM; with HN5 tumor cells, 100 to 1000 nM; on EGFR it was < 100 nM.
In the case of `Cc1cccc(C(=O)Nc2cccc(-c3nc(C)sc3-c3ccnc(Nc4ccc(OCCN(C)C)c(Cl)c4)n3)c2)c1` [Example 135, N-[3-(5-{2-[(3-Chloro-4-{[2-(dimethylamino)ethyl]oxy}phenyl)amino]-4-pyrimidinyl}-2-methyl-1,3-thiazol-4-yl)phenyl]-3-methylbenzamide], the IC50 with BT474 tumor cells is 100 to 1000 nM; on ErbB2 it was < 100 nM; with Colo205 tumor cells, > 1000 nM; at EGFR, < 100 nM; with SK-MEL-28 tumor cells, > 1000 nM.
On to `Cc1nc(-c2cccc(NC(=O)c3cccc(Cl)c3)c2)c(-c2ccnc(Nc3ccc(OCCN(C)C)c(Cl)c3)n2)s1` [Example 136, 3-Chloro-N-[3-(5-{2-[(3-chloro-4-{[2-(dimethylamino)ethyl]oxy}phenyl)amino]-4-pyrimidinyl}-2-methyl-1,3-thiazol-4-yl)phenyl]benzamide], for which the IC50 was 100 to 1000 nM in the assay on BT474 tumor cells; < 100 nM at ErbB2; > 1000 nM in the assay on Colo205 tumor cells; < 100 nM at EGFR; > 1000 nM in the assay with SK-MEL-28 tumor cells.
In the case of `Cc1nc(-c2cccc(NC(=O)c3cccnc3F)c2)c(-c2ccnc(Nc3ccc4c(c3)CN(C)CC4)n2)s1` [Example 137, 2-Fluoro-N-[3-(2-methyl-5-{2-[(2-methyl-1,2,3,4-tetrahydro-7-isoquinolinyl)amino]-4-pyrimidinyl}-1,3-thiazol-4-yl)phenyl]-3-pyridinecarboxamide trifluoroacetate], the concentration for half-maximal inhibition (IC50) is 100 to 1000 nM in the assay with BT474 tumor cells; < 100 nM at ErbB2; > 1000 nM with Colo205 tumor cells; < 100 nM on EGFR; > 1000 nM in the assay with SK-MEL-28 tumor cells.
On to `CN(C)CCOc1ccc(Nc2nccc(-c3sc(-c4ccc(O)cc4)nc3-c3cccc(NC(=O)c4c(F)cccc4F)c3)n2)cc1Cl` [Example 139, N-{3-[5-{2-[(3-Chloro-4-{[2-(dimethylamino)ethyl]oxy}phenyl)amino]-4-pyrimidinyl}-2-(4-hydroxyphenyl)-1,3-thiazol-4-yl]phenyl}-2,6-difluorobenzamide], for which the IC50 in the assay on BT474 tumor cells is 100 to 1000 nM; on ErbB2, < 100 nM; with Colo205 tumor cells, 100 to 1000 nM; in the assay with HN5 tumor cells it was 100 to 1000 nM; on EGFR, < 100 nM.
